Laboratory results reported in US12291518B2, “Thyroid hormone receptor agonists and use thereof” (Eccogene Inc., priority 2020, dated 2025).

Columns and labels:
THR beta-LBD = molecular target: T1, THR beta-LBD (Homo sapiens, UniProt P10828); test: THR-β Coactivator Peptide Recruitment Assay (LanthaScreen TR-FRET); assay type: biochemical; conditions: TR-FRET coactivator recruitment, THR beta-LBD 0.5 nM; for EC50: read-out: THRβ EC50
T1 construct: THR beta-LBD (the final concentration is 0.5 nM) was added to the 384-well assay plate; purchased Invitrogen PV4686
T1 sequence (P10828 217-461 limits assumed): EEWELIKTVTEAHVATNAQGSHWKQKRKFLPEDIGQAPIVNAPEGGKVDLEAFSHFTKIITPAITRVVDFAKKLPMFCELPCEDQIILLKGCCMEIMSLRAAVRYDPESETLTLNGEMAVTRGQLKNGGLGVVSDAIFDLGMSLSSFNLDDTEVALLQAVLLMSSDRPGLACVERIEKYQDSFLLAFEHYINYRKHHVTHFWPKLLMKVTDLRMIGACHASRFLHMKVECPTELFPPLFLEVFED
Outline: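 GST-tagged THR beta-LBD (0.5 nM) with test compound recruits fluorescein-SRC2-2 coactivator peptide (0.1 nM), detected with Tb-anti-GST antibody (2 nM).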

THR alpha-LBD = molecular target: T2, THR alpha-LBD (Homo sapiens, UniProt P10827); test: THR-α Coactivator Peptide Recruitment Assay (LanthaScreen TR-FRET); assay type: biochemical; conditions: TR-FRET coactivator recruitment, THR alpha-LBD 0.25 nM; for EC50: read-out: THRα EC50
T2 construct: except that THR alpha-LBD of a final concentration 0.25 nM was used; purchased Invitrogen PV4687
T2 sequence (P10827 163-410 isoform P10827-2 limits assumed, other chains not shown): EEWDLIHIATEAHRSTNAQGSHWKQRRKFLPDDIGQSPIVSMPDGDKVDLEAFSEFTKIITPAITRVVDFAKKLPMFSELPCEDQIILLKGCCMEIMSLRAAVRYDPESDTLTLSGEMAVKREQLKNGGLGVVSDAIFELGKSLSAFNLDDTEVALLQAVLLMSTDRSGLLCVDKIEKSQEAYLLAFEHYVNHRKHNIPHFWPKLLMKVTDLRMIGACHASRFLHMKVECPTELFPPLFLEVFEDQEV
Outline: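 TR-FRET coactivator recruitment with THR alpha-LBD at 0.25 nM final, Fluorescein-SRC2-2 peptide 0.1 nM and Tb-labeled anti-GST antibody 2 nM; 2 h incubation at room temperature. 520/495 nm emission ratio fitted to a four-parameter sigmoidal curve to give EC50.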

| SMILES | THRβ Emax (THR beta-LBD) | EC50 (THR beta-LBD) [µM] | THRα Emax (THR alpha-LBD) | EC50 (THR alpha-LBD) [µM] |
| --- | --- | --- | --- | --- |
| O=C(NC1CC1)C1(NS(=O)(=O)c2cc(Oc3c(Cl)cc(-n4nc(C(F)F)c(=O)[nH]c4=O)cc3Cl)ncc2O)CCC1 [Compound 121, N-cyclopropyl-1-((2-(2,6-dichloro-4-(6-(difluoromethyl)-3,5-dioxo-4,5-dihydro-1,2,4-triazin-2(3H)-yl)phenoxy)-5-hydroxypyridine)-4-sulfonamido)cyclobutane-1-carboxamide] | C (<75) | > 0.1 | C (<40) | > 1 |
| CC1(C)CC(NS(=O)(=O)c2cc(Oc3c(Cl)cc(-n4nc(C(F)F)c(=O)[nH]c4=O)cc3Cl)ncc2O)C1 [Compound 122] | C (<75) | 0.002 to 0.02 | B (40~85) | 0.2 to 1 |
| O=c1[nH]c(=O)n(-c2cc(Cl)c(Oc3cc(S(=O)(=O)NC4CCC4)c(O)cn3)c(Cl)c2)nc1C(F)F [Compound 123, N-cyclobutyl-2-(2,6-dichloro-4-(6-(difluoromethyl)-3,5-dioxo-4,5-dihydro-1,2,4-triazin-2(3H)-yl)phenoxy)-5-hydroxypyridine-4-sulfonamide] | A (90~110) | < 0.002 | A (85~110) | 0.002 to 0.2 |
| O=c1[nH]c(=O)n(-c2cc(Cl)c(Oc3cc(S(=O)(=O)NC4CCCC4)c(O)cn3)c(Cl)c2)nc1C(F)F [Compound 124, N-cyclopentyl-2-(2,6-dichloro-4-(6-(difluoromethyl)-3,5-dioxo-4,5-dihydro-1,2,4-triazin-2(3H)-yl)phenoxy)-5-hydroxypyridine-4-sulfonamide] | B (75~90) | < 0.002 | B (40~85) | 0.002 to 0.2 |
| N#C[C@H]1C[C@@H](NS(=O)(=O)c2cc(Oc3c(Cl)cc(-n4nc(C(F)F)c(=O)[nH]c4=O)cc3Cl)ncc2O)C1 [Compound 125, N-((1s,3s)-3-cyanocyclobutyl)-2-(2,6-dichloro-4-(6-(difluoromethyl)-3,5-dioxo-4,5-dihydro-1,2,4-triazin-2(3H)-yl)phenoxy)-5-hydroxypyridine-4-sulfonamide] | B (75~90) | 0.002 to 0.02 | B (40~85) | 0.2 to 1 |
| CNS(=O)(=O)c1cc(Oc2c(Cl)cc(-n3nc(C(F)F)c(=O)[nH]c3=O)cc2Cl)ncc1OC [Compound 127, 2-(2,6-dichloro-4-(6-(difluoromethyl)-3,5-dioxo-4,5-dihydro-1,2,4-triazin-2(3H)-yl)phenoxy)-5-methoxy-N-methylpyridine-4-sulfonamide] | C (<75) | 0.02 to 0.1 | C (<40) | 0.2 to 1 |
| O=c1[nH]c(=O)n(-c2cc(Cl)c(Oc3cc(S(=O)(=O)C4CC4)c(O)cn3)c(Cl)c2)nc1C(F)F [Compound 128, 2-[3,5-dichloro-4-[(4-cyclopropylsulfonyl-5-hydroxy-2-pyridyl)oxy]phenyl]-6-(difluoromethyl)-1,2,4-triazine-3,5-dione] | B (75~90) | < 0.002 | A (85~110) | 0.002 to 0.2 |
| N#Cc1nn(-c2cc(Cl)c(Oc3cc(S(=O)(=O)C4CC4)c(O)cn3)c(Cl)c2)c(=O)[nH]c1=O [Compound 129, 2-(3,5-dichloro-4-((4-(cyclopropylsulfonyl)-5-hydroxypyridin-2-yl)oxy)phenyl)-3,5-dioxo-2,3,4,5-tetrahydro-1,2,4-triazine-6-carbonitrile] | A (90~110) | 0.002 to 0.02 | B (40~85) | 0.002 to 0.2 |
| N#C[C@H]1C[C@H](NS(=O)(=O)c2cc(Oc3c(Cl)cc(-n4nc(C(F)F)c(=O)[nH]c4=O)cc3Cl)ncc2O)C1 [Compound 130, N-(3-cyanocyclobutyl)-2-[2,6-dichloro-4-[6-(difluoromethyl)-3,5-dioxo-1,2,4-triazin-2-yl]phenoxy]-5-hydroxy-pyridine-4-sulfonamide] | B (75~90) | 0.002 to 0.02 | B (40~85) | 0.2 to 1 |
| O=c1[nH]c(=O)n(-c2cc(Cl)c(Oc3cc(S(=O)(=O)NC4CC4)c(O)cn3)c(Cl)c2)nc1C(F)F [Compound 131, N-cyclopropyl-2-(2,6-dichloro-4-(6-(difluoromethyl)-3,5-dioxo-4,5-dihydro-1,2,4-triazin-2(3H)-yl)phenoxy)-5-hydroxypyridine-4-sulfonamide] | A (90~110) | < 0.002 | A (85~110) | 0.002 to 0.2 |
| O=c1[nH]c(=O)n(-c2cc(Cl)c(Oc3cc(S(=O)(=O)N[C@H]4C[C@@H](O)C4)c(O)cn3)c(Cl)c2)nc1C(F)F [Compound 132, 2-(2,6-dichloro-4-(6-(difluoromethyl)-3,5-dioxo-4,5-dihydro-1,2,4-triazin-2(3H)-yl)phenoxy)-5-hydroxy-N-((1s,3s)-3-hydroxycyclobutyl)pyridine-4-sulfonamide] | A (90~110) | 0.002 to 0.02 | B (40~85) | 0.2 to 1 |
| O=c1[nH]c(=O)n(-c2cc(Cl)c(Oc3cc(S(=O)(=O)NC[C@H]4C[C@H](O)C4)c(O)cn3)c(Cl)c2)nc1C(F)F [Compound 133, 2-(2,6-dichloro-4-(6-(difluoromethyl)-3,5-dioxo-4,5-dihydro-1,2,4-triazin-2(3H)-yl)phenoxy)-5-hydroxy-N-(((1r,3r)-3-hydroxycyclobutyl)methyl)pyridine-4-sulfonamide] | B (75~90) | 0.02 to 0.1 | B (40~85) | > 1 |
| O=c1[nH]c(=O)n(-c2cc(Cl)c(Oc3cc(S(=O)(=O)NC[C@H]4C[C@@H](O)C4)c(O)cn3)c(Cl)c2)nc1C(F)F [Compound 134, 2-(2,6-dichloro-4-(6-(difluoromethyl)-3,5-dioxo-4,5-dihydro-1,2,4-triazin-2(3H)-yl)phenoxy)-5-hydroxy-N-(((1s,3s)-3-hydroxycyclobutyl)methyl)pyridine-4-sulfonamide] | B (75~90) | 0.02 to 0.1 | B (40~85) | > 1 |
| N#CC1(NS(=O)(=O)c2cc(Oc3c(Cl)cc(-n4nc(C(F)F)c(=O)[nH]c4=O)cc3Cl)ncc2O)CC1 [Compound 135, N-(1-cyanocyclopropyl)-2-(2,6-dichloro-4-(6-(difluoromethyl)-3,5-dioxo-4,5-dihydro-1,2,4-triazin-2(3H)-yl)phenoxy)-5-hydroxypyridine-4-sulfonamide] | A (90~110) | 0.002 to 0.02 | A (85~110) | 0.002 to 0.2 |
| O=c1[nH]c(=O)n(-c2cc(Cl)c(Oc3cc(S(=O)(=O)NC4CCOCC4)c(O)cn3)c(Cl)c2)nc1C(F)F [Compound 136, 2-(2,6-dichloro-4-(6-(difluoromethyl)-3,5-dioxo-4,5-dihydro-1,2,4-triazin-2(3H)-yl)phenoxy)-5-hydroxy-N-(tetrahydro-2H-pyran-4-yl)pyridine-4-sulfonamide] | B (75~90) | 0.002 to 0.02 | B (40~85) | 0.002 to 0.2 |
| CC(C)(O)CNS(=O)(=O)c1cc(Oc2c(Cl)cc(-n3nc(C(F)F)c(=O)[nH]c3=O)cc2Cl)ncc1O [Compound 137, 2-(2,6-dichloro-4-(6-(difluoromethyl)-3,5-dioxo-4,5-dihydro-1,2,4-triazin-2(3H)-yl)phenoxy)-5-hydroxy-N-(2-hydroxy-2-methylpropyl)pyridine-4-sulfonamide] | C (<75) | 0.02 to 0.1 | B (40~85) | > 1 |
